# From US11634466B2, “Musclin peptides and methods of use thereof” (UNIVERSITY OF IOWA RESEARCH FOUNDATION, priority 2016, dated 2023)
# Legend:
# WT and Ostn-KO mice = assay: Voluntary exercise performance on running wheels during musclin infusion; format: in vivo
# Method: Whole body composition was obtained by time-domain nuclear magnetic resonance under isoflurane anesthesia (Bruker Minispec; Billerica, Mass.). Osmotic pumps: Osmotic pumps (model 1004, 100 μl volume, 0.11 μl/hr release rate, 28 days duration, Alzet Durect, Cupertino, Calif.), loaded with saline vs. 50 μg of mouse musclin peptide (SFSGFGSPLDRLSAG SVEHRGKQRKAVDHSKKR (SEQ ID NO: 4), corresponding to amino acids 80-112, Gen Bank ID: AAS87598.1, synthesized by Biosynthesis, Lewisville, Tex.) were surgically implanted within the peritoneal cavity of mice under sterile conditions and general anesthesia. Mice recovered for 7 days before exercise testing was performed.
# Mice were housed in individual cages with free access to attached running wheels (Columbus Instruments, Columbus, Ohio). Running distance was calculated as 1/6πD·ΣRMPi, where D is wheel diameter and ΣRMPi is sum of averaged RPM values.
# [1] = test system: cGMP production in murine primary myoblasts; assay: cGMP production in skeletal myoblast culture exposed to ANP and musclin; format: cell-based; conditions: n=3
# Method: Cyclic GMP levels were measured using cyclicGMP EIA kit (Cayman Chemical Company, Ann Arbor, Mich.). Mice were exercised for 5 days, 12 m/min, 45 min before tissue collection. At the day of the experiment mice were exercised 12 m/min, 20 min, sedated with isoflurane and gastrocnemius muscle tissue was collected. Cyclic nucleotides were extracted using 5% trichloracetic acid. Samples were acetylated and used for cGMP level measurements according to the manufacturer's protocol.
# Mouse primary myoblasts were isolated from gastrocnemius muscle of 4-6 weeks old mice. Fresh muscle tissue was digested with 2 mg/ml collagenase II in DMEM-F12 for 1.5 h at 37° C.; then 30 min at 37° C. with 1 mg/ml collagenase II and 0.5 mg/ml dispase in DMEM-F12. Tissue was ground and passed through a 100 μm then 70 μm cell strainer and spun at 1000 rpm for 10 min. Myoblasts were resuspended in DMEM-F12 supplemented with 20% FBS, 40 ng/ml bFGF, non-essential amino acids, 1 mM β-mercaptoethanol. Cells were plated on matrigel coated dishes. Cells were maintained in DMEM-F12 supplemented with 20% FBS, 10 ng/ml bFGF, non-essential amino acids, 1 mM β-mercaptoethanol until 80% confluent. Then they were differentiated in DMEM-F12 supplemented with 2% FBS and insulin-transferrin-selenium for 10 days. Human skeletal myoblast primary culture (lot #SLSK002, Zenbio, Research Triangle Park, NC) was maintained according to the supplier's manual.
# NPRB = molecular target: T1, NPRB (Homo sapiens, UniProt P20594); conditions: background statement; without activating the linked guanylyl cyclase; cited from earlier work
# T1 sequence (P20594 23-1047): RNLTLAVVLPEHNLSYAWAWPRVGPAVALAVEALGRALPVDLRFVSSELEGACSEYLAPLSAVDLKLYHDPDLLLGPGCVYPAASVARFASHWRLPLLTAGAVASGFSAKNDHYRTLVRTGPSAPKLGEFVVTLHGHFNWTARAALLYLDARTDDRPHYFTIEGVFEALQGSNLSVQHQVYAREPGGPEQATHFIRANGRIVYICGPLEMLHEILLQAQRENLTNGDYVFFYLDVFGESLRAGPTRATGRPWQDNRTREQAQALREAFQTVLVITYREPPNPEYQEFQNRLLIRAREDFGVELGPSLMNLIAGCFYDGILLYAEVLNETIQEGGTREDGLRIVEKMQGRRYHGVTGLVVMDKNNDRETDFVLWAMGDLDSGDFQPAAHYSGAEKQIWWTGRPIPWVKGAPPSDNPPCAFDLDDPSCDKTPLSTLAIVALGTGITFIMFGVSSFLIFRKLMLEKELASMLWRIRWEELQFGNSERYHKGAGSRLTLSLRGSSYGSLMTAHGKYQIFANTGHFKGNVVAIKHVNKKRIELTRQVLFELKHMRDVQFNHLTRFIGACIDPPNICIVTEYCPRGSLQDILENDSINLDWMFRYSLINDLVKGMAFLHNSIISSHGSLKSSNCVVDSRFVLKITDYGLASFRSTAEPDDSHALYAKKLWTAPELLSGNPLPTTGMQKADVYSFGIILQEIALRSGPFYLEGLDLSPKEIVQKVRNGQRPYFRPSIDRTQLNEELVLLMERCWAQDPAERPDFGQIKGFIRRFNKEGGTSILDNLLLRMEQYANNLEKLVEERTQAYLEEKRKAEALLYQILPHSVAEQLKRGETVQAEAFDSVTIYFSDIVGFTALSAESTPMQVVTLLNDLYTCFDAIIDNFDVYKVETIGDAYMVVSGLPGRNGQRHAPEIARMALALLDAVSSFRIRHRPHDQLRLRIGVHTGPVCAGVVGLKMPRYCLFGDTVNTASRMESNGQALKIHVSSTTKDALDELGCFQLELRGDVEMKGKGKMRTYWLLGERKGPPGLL
# [2] = Ostn-KO mice treated with musclin by osmotic pump, night, n=4
# [3] = WT mice treated with musclin by osmotic pump, night, n=5
substance,measurement,setting,value
H-SFSGFGSPLDRLSAGSVEHRGKQRKAVDHSKKR-OH [musclin],"night-time mean velocity, voluntary running wheel","WT and Ostn-KO mice; Ostn-KO mice treated with musclin by osmotic pump, n=4",53±15 rotations/5 min.
same,"distance run, voluntary running wheel",WT and Ostn-KO mice; [2],2290±632 meters
same,"duration of running, voluntary running wheel",WT and Ostn-KO mice; [2],333 ± 53 min
same,"distance, voluntary running wheel",WT and Ostn-KO mice; [3],2202±280 meters
same,"duration, voluntary running wheel",WT and Ostn-KO mice; [3],336 ± 39 min
same,"mean velocity, voluntary running wheel",WT and Ostn-KO mice; [3],51±7 rotations/5 min.
same,cGMP production,[1]; 1 μM musclin without ANP,0.104±0.006 fmol/μg protein
same,cGMP production,[1]; 5 μM musclin without ANP,0.117±0.003 fmol/μg protein
same,binding to NPRB,NPRB,weak binding
